Measurements published in ChEMBL document CHEMBL4196062, “Trypanothione reductase inhibition and anti-leishmanial activity of all-hydrocarbon stapled α-helical peptides with improved proteolytic stability” (Eur J Med Chem, 2018).
Activity calls are given as the source filed them. No cut-off for these calls is given here. Positions of bridges follow the written chain, without caps; N, C: chain ends. Non-standard residues stand in square brackets, D forms with d. Residues, ends and D or L forms follow the SMILES beside them. *: point of attachment. X1 = O=C(O)c1ccc(NC(=S)*)cc1-c1c2ccc(=O)cc-2oc2cc(O)ccc12; R5 = C=CCCC[C@@](C)(N)C(=O)O; S5 = C=CCCC[C@](C)(N)C(=O)O; Nle = CCCC[C@H](N)C(=O)O; AEEA = NCCOCCOCC(=O)O

What was measured:
Proteinase K [1] = molecular target: T1, Proteinase K (Engyodontium album, UniProt P06873); test: Drug metabolism assessed as Tritirachium album proteinase K-mediated compound degradation by measuring half life at 100 uM measured up to 360 mins by HPLC method; assay type: ADME; conditions: parengyodontium album
Trypanothione reductase [2] = molecular target: T2, Trypanothione reductase (Leishmania infantum, UniProt A4HSF7); test: Inhibition of recombinant Leishmania infantum trypanothione reductase using T[S]2 as substrate preincubated for 5 mins followed by substrate and NADPH addition measured for 1 hr
Trypanothione reductase [3] = molecular target: T2, Trypanothione reductase; test: Inhibition of dimerization of HIS/FLAG tagged Leishmania infantum trypanothione reductase incubated for 16 hrs by ELISA
[4] = molecular target: Trypanothione reductase (Leishmania infantum) (UniProt A4HSF7); test: Inhibition of dimerization of HIS/FLAG tagged Leishmania infantum trypanothione reductase assessed as dimer levels at 9.375 uM incubated for 16 hrs by ELISA; design: scale not given: the % may be the effect or the level left
Leishmania infantum [5] = test: Antileishmanial activity against Leishmania infantum MCAN/ES/89/IPZ229/1/89 axenic amastigotes infected in human THP1 cells at 25 uM after 24 hrs by propidium iodide staining based fluorescence microscopic analysis; assay type: functional, organism-based
[6] = molecular target: Trypanothione reductase (Leishmania infantum) (UniProt A4HSF7); test: Inhibition of dimerization of HIS/FLAG tagged Leishmania infantum trypanothione reductase assessed as dimer levels at 75 uM incubated for 16 hrs by ELISA; design: scale not given: the % may be the effect or the level left
[7] = molecular target: T3, Glutathione reductase, mitochondrial (Homo sapiens) (UniProt P00390); test: Activation of recombinant human glutathione reductase using GSSG as substrate preincubated for 5 mins followed by substrate and NADPH addition
T3 sequence (whole entry): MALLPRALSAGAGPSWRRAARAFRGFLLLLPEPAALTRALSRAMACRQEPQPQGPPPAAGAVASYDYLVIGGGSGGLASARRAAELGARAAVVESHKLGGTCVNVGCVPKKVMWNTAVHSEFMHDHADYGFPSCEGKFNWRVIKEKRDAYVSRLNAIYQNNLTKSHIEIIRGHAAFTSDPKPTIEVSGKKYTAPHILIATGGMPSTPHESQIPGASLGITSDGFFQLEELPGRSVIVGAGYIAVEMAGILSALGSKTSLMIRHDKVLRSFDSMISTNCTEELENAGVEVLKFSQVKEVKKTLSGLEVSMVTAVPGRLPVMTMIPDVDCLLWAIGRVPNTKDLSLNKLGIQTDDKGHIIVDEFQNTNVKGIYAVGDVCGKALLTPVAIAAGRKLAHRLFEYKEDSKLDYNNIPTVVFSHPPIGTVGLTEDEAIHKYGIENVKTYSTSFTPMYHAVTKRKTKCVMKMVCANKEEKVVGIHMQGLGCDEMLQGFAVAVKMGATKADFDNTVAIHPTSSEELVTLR

Proteinase K [8] = molecular target: T1, Proteinase K; test: Drug metabolism assessed as Tritirachium album proteinase K-mediated compound degradation by measuring half life at 100 uM measured up to 480 mins by HPLC method; assay type: ADME; conditions: parengyodontium album
Leishmania infantum [9] = test: Antileishmanial activity against Leishmania infantum MCAN/ES/89/IPZ229/1/89 promastigotes at 25 uM after 24 hrs by propidium iodide staining based fluorescence microscopic analysis; assay type: functional, organism-based
[10] = molecular target: Trypanothione reductase (Leishmania infantum) (UniProt A4HSF7); test: Inhibition of dimerization of HIS/FLAG tagged Leishmania infantum trypanothione reductase assessed as dimer levels at 37.5 uM incubated for 16 hrs by ELISA; design: scale not given: the % may be the effect or the level left
[11] = molecular target: Trypanothione reductase (Leishmania infantum) (UniProt A4HSF7); test: Inhibition of dimerization of HIS/FLAG tagged Leishmania infantum trypanothione reductase assessed as dimer levels at 18.75 uM incubated for 16 hrs by ELISA; design: scale not given: the % may be the effect or the level left
Leishmania infantum [12] = test: Antileishmanial activity against Leishmania infantum MCAN/ES/89/IPZ229/1/89 promastigotes after 24 hrs by propidium iodide staining based fluorescence microscopic analysis; assay type: functional, organism-based; conditions: MCAN/ES/89/IPZ229/1/89, 24 h
THP-1 = test: Cytotoxicity against human THP1 cells assessed as reduction in cell viability after 24 hrs by propidium iodide staining based fluorescence microscopic analysis; conditions: THP-1, 24 h
Leishmania infantum [13] = test: Antileishmanial activity against Leishmania infantum MCAN/ES/89/IPZ229/1/89 axenic amastigotes infected in human THP1 cells after 24 hrs by propidium iodide staining based fluorescence microscopic analysis; assay type: functional, organism-based; conditions: MCAN/ES/89/IPZ229/1/89, THP-1, 24 h

Trypanothione reductase (Leishmania infantum), sequence (A4HSF7 as listed by the source): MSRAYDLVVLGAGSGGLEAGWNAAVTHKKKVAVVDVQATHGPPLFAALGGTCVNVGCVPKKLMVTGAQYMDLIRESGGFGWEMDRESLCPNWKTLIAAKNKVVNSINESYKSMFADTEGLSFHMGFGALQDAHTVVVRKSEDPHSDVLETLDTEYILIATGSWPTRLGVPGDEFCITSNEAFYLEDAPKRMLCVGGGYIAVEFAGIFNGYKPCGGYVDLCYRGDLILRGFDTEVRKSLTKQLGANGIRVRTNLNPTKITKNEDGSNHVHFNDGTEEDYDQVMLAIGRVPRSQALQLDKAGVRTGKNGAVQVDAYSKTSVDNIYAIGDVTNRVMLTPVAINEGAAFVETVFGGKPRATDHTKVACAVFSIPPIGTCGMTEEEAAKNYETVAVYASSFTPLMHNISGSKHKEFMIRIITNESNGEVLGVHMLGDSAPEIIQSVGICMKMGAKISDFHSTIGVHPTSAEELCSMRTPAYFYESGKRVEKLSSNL
T2 sequence (A4HSF7 whole entry): as the sequence (A4HSF7 as listed by the source) above
T1 sequence (P06873 whole entry): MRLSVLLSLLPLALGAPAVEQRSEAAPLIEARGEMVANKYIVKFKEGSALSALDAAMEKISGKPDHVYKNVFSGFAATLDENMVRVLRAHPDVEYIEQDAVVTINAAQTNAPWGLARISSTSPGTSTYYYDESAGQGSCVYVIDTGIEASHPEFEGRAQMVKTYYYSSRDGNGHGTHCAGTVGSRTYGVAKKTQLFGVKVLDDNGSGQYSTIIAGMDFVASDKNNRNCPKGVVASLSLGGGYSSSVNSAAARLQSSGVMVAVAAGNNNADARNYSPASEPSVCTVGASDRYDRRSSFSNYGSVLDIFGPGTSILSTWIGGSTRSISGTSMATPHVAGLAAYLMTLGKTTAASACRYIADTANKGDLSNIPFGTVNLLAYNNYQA

CCCC[C@H](NC(=O)[C@H](CC(C)C)NC(=O)[C@H](CCCC)NC(=O)[C@H](CO)NC(=O)[C@@H](NC(=O)CNC(=O)[C@@H](NC(=O)[C@H](CO)NC(=O)[C@H](CCC(N)=O)NC(=O)[C@@H](NC(=O)[C@@H](NC(=O)[C@H](CC(C)C)NC(=O)[C@@H]1CCCN1C(C)=O)[C@@H](C)CC)[C@@H](C)CC)C(C)C)[C@@H](C)CC)C(N)=O
half-life at 100 µM (Proteinase K [1]): 0.375 to 0.383 h
IC50 (Trypanothione reductase [2]): 1.2 µM
IC50 (Trypanothione reductase [3]; read-out: IC50): 13.5 µM

CCCC[C@@H](NC(=O)[C@H](CC(C)C)NC(=O)[C@@H](CCCC)NC(=O)[C@H](CO)NC(=O)[C@@H](NC(=O)CNC(=O)C1(C)CCCC=CCCC[C@@](C)(NC(=O)[C@@H](NC(=O)[C@H](CC(C)C)NC(=O)[C@@H]2CCCN2C(C)=O)[C@@H](C)CC)C(=O)N[C@@H](CCC(N)=O)C(=O)N[C@@H](CO)C(=O)N[C@@H](C(C)C)C(=O)N1)[C@@H](C)CC)C(N)=O (some centres undefined)
Activity [4]: 140%
Activity (Leishmania infantum [5]): inactive
Activity [6]: 168%
Activity [7]: Active
half-life at 100 µM (Proteinase K [8]): 3.53 h
IC50 (Trypanothione reductase [2]): 6.4 µM
Activity (Leishmania infantum [9]): inactive
Activity [10]: 169%
Activity [11]: 144%

CCCC[C@@H](NC(=O)[C@H](CC(C)C)NC(=O)[C@@H](CCCC)NC(=O)[C@H](CO)NC(=O)[C@@H](NC(=O)CNC(=O)[C@@H](NC(=O)[C@H](CO)NC(=O)[C@H](CCC(N)=O)NC(=O)[C@@H](NC(=O)[C@@H](NC(=O)[C@H](CC(C)C)NC(=O)[C@@H]1CCCN1C(C)=O)[C@@H](C)CC)[C@@H](C)CC)C(C)C)[C@@H](C)CC)C(N)=O
Activity [4]: 59%
Activity [6]: 2%
Activity [10]: 18%
Activity [11]: 56%

C=CCCC[C@@](C)(NC(=O)[C@@H](NC(=O)[C@H](CO)NC(=O)[C@H](CCC(N)=O)NC(=O)[C@@](C)(CCCC=C)NC(=O)[C@@H](NC(=O)[C@H](CCCCN)NC(=O)[C@@H]1CCCN1C(C)=O)[C@@H](C)CC)C(C)C)C(=O)N[C@H](C(=O)N[C@@H](CO)C(=O)NCC(=O)N[C@@H](CCCCN)C(=O)NCC(N)=O)[C@@H](C)CC (Ac-PKI[R5]QSV[R5]ISGKG-NH2)
Activity [4]: 125%
Activity (Leishmania infantum [5]): inactive
Activity [6]: 184%
IC50 (Trypanothione reductase [2]): 12.5 µM
Activity (Leishmania infantum [9]): inactive
Activity [10]: 175%
Activity [11]: 145%

C=CCCC[C@](C)(NC(=O)[C@H](CO)NC(=O)[C@H](CCC(N)=O)NC(=O)[C@@H](NC(=O)[C@](C)(CCCC=C)NC(=O)[C@H](CCCCN)NC(=O)[C@@H]1CCCN1C(C)=O)[C@@H](C)CC)C(=O)NCC(=O)N[C@H](C(=O)N[C@@H](CO)C(=O)N[C@@H](CCCC)C(=O)N[C@@H](CCCCN)C(=O)N[C@@H](CCCC)C(N)=O)[C@@H](C)CC (Ac-PK[S5]IQS[S5]GIS[Nle]K[Nle]-NH2)
Activity (Leishmania infantum [5]): inactive
IC50 (Trypanothione reductase [2]): 28.2 µM
Activity (Leishmania infantum [9]): inactive
IC50 (Trypanothione reductase [3]): Not Active

CC[C@H](C)[C@H](NC(=O)[C@]1(C)CCCC=CCCC[C@](C)(NC(=O)[C@H](CCCCN)NC(=O)[C@@H]2CCCN2C(=O)[C@H](CCCNC(=N)N)NC(=O)[C@H](CCCNC(=N)N)NC(=O)[C@H](CCCNC(=N)N)NC(=O)[C@H](CCCNC(=N)N)NC(=O)[C@H](CCCNC(=N)N)NC(=O)[C@H](CCCNC(=N)N)NC(=O)[C@H](CCCNC(=N)N)NC(=O)[C@H](CCCNC(=N)N)NC(=O)[C@H](CCCNC(=N)N)NC(C)=O)C(=O)N[C@@H]([C@@H](C)CC)C(=O)N[C@@H](CCC(N)=O)C(=O)N[C@@H](CO)C(=O)NCC(=O)N1)C(=O)N[C@@H](CO)C(=O)NCC(=O)N[C@@H](CC(C)C)C(=O)NCC(N)=O (Ac-RRRRRRRRRPK[S5]IQSG[S5]ISGLG-NH2; staple 12-17)
EC50 (Leishmania infantum [12]): 1.95 µM
EC50 (THP-1): 0.33 µM
EC50 (Leishmania infantum [13]): 2.14 µM

CCCC[C@H](NC(=O)[C@H](CC(C)C)NC(=O)[C@H](CCCC)NC(=O)[C@H](CO)NC(=O)[C@@H](NC(=O)CNC(=O)[C@]1(C)CCCC=CCCC[C@@](C)(NC(=O)[C@H](CC(C)C)NC(=O)[C@@H]2CCCN2C(C)=O)C(=O)N[C@@H]([C@@H](C)CC)C(=O)N[C@@H](CCC(N)=O)C(=O)N[C@@H](CO)C(=O)N1)[C@@H](C)CC)C(N)=O (stereo in doubt; 2a) [listing 1 of 2 here]
half-life at 100 µM (Proteinase K [8]): 6.97 h
IC50 (Trypanothione reductase [2]): 6.7 µM

CCCC[C@H](NC(=O)[C@H](CC(C)C)NC(=O)[C@H](CCCC)NC(=O)[C@H](CO)NC(=O)[C@@H](NC(=O)CNC(=O)[C@]1(C)CCCC=CCCC[C@@](C)(NC(=O)[C@H](CC(C)C)NC(=O)[C@@H]2CCCN2C(C)=O)C(=O)N[C@@H]([C@@H](C)CC)C(=O)N[C@@H](CCC(N)=O)C(=O)N[C@@H](CO)C(=O)N1)[C@@H](C)CC)C(N)=O (stereo in doubt; 2a) [listing 2 of 2 here]
Activity [4]: 114%
Activity (Leishmania infantum [5]): inactive
Activity [6]: 181%
Activity [7]: Active
Activity (Leishmania infantum [9]): inactive
Activity [10]: 153%
Activity [11]: 130%

CCCC[C@H](NC(=O)[C@H](CC(C)C)NC(=O)[C@H](CCCC)NC(=O)[C@H](CO)NC(=O)[C@@H](NC(=O)CNC(=O)[C@]1(C)CCCC=CCCC[C@@](C)(NC(=O)[C@H](CC(C)C)NC(=O)[C@@H]2CCCN2C(C)=O)C(=O)N[C@@H]([C@@H](C)CC)C(=O)N[C@@H](CCC(N)=O)C(=O)N[C@@H](CO)C(=O)N1)[C@@H](C)CC)C(N)=O (stereo in doubt; 2b)
IC50 (Trypanothione reductase [2]): > 25 µM
IC50 (Trypanothione reductase [3]): Not Active

CC[C@H](C)[C@H](NC(=O)[C@]1(C)CCCC=CCCC[C@](C)(NC(=O)[C@H](CCCCN)NC(=O)[C@@H]2CCCN2C(=O)COCCOCCNC(=S)Nc2ccc(C(=O)O)c(-c3c4ccc(=O)cc-4oc4cc(O)ccc34)c2)C(=O)N[C@@H]([C@@H](C)CC)C(=O)N[C@@H](CCC(N)=O)C(=O)N[C@@H](CO)C(=O)NCC(=O)N1)C(=O)N[C@@H](CO)C(=O)NCC(=O)N[C@@H](CC(C)C)C(=O)NCC(N)=O ({X1-AEEA}-PK[S5]IQSG[S5]ISGLG-NH2; staple 3-8)
Activity (Leishmania infantum [5]): inactive
Activity (Leishmania infantum [9]): inactive

CCCCCCCCCCCCCCCCCCOCC(COP(=O)([O-])OCC[N+](C)(C)C)OC (centres undefined) [EDELFOSINE]
EC50 (Leishmania infantum [12]): 9 µM
EC50 (THP-1): 1 µM
EC50 (Leishmania infantum [13]): 0.6 µM

CCCCCCCCCCCCCCCCOP(=O)([O-])OCC[N+](C)(C)C [MILTEFOSINE]
EC50 (Leishmania infantum [12]): 47.6 µM
EC50 (THP-1): 19 µM
EC50 (Leishmania infantum [13]): 2 µM
